Source: patent US12128013B2, “Toxic aldehyde related diseases and treatment” (Aldeyra Therapeutics, Inc., priority 2013, dated 2024)
“Also recorded” adds a separate entry of the source.

Key:
[1] = Reaction with MDA salt in glyceryl trioleate / Captisol-PBS / linoleic acid, monitored by LC/MS; conditions: 0.064 mmol compound and MDA, ambient temperature
Experimental: To five separate reaction vials was added Compounds 1, 2, 12, 14, and 16, respectively (0.064 mmol), MDA salt (22.7% MDA, 0.064 mmol), and glyceryl trioleate (600 mg). To the mixture was added 20 wt % Capitsol in aqueous PBS (˜2.5 ml), followed by linoleic acid (600 mg). The reaction mixture was stirred vigorously at ambient temperature and monitored by LC/MS. […] Other MDA adducts were also formed at different time points of the reactions.

[2] = test system: circulating cytokines; assay: LPS exposure in mice, ELISA of circulating cytokines; assay type: in vivo, Male C57BI/6 mice; conditions: single dose 30 minutes before LPS (20 mg/kg), blood two hours after LPS
Experimental: Male C57BI/6 mice were dosed with Compound 9 30 minutes before they were exposed to LPS (20 mg/kg). Two hours after the LPS exposure, blood was collected from the mice and an ELISA was conducted to determine the amount of circulating cytokines.

[3] = Aldehyde trapping (FIG. 1), MDA
[4] = test system: Primary rat cortical cultures; assay: LDH assay in primary rat cortical cultures; assay type: cell-based; conditions: 24 or 48 hours, various concentrations; FIG. 2
Experimental: Primary rat cortical cultures were placed in an incubator for 24 or 48 hours and treated with various concentrations of Compound 9. Then 20 μL of the culture media was removed for an LDH assay as described in Bergmeyer et al., Methods of Enzymatic Analysis, 3rd ed. (1983).

[5] = test system: contact dermatitis; assay: Contact dermatitis, phorbol myristate acetate (PMA) model, pinna thickness; assay type: in vivo, mice; conditions: single dose, FIG. 5A
Experimental: To determine the efficacy of Compound 9 in treating contact dermatitis, phorbol myristate acetate (“PMA”) was applied topically (2.5 μg in 20 μL) to both the anterior and posterior portions of the right pinna of mice (N=10 per group). As a control, the left pinna received 20 μL of ethanol (PMA excipient) to both the anterior and posterior portions. Six hours after the PMA application, both the right and left pinna thickness was determined. Measurements were determined at least twice from the same region of both ears, with care taken not to include hair or folded pinna.

[6] = test system: radiation induced fibrosis; assay: Radiation induced fibrosis after 40 Gy irradiation; assay type: in vivo; conditions: hamsters subject to 40 Gy irradiation; FIG. 7
[7] = test system: allergic dermatitis; assay: Allergic dermatitis, oxazolone (OXL) model, pinna thickness; assay type: in vivo, mice; conditions: single dose 100 mg/kg intraperitoneally, FIG. 5B
Experimental: To measure the efficacy of Compound 9 in treating allergic dermatitis, oxazolone (“OXL”) was applied (1.5%, 100 μL in acetone) to the shaved abdomens of mice. Seven days later, the thickness of the pinna of the OXL treated mice was determined. Then Compound 9 (100 mg/kg) or the vehicle (i.e., Captisol) was administered intraperitoneally to mice followed by topical application of OXL (1%, 20 μL) 30 min later to both the anterior and posterior portions of the right pinna. As a control, the left pinna received 20 μL of acetone (OXL excipient) to both the anterior and posterior portions. The thickness of the pinna of both ears was measured again 24 hours later. N=10 per group.

[8] = Aldehyde trapping (FIG. 1), HNE
[9] = in the presence of peptides and phospholipids

| Compound | form of the MDA adducts [1] | reaction with MDA / trapping of MDA (formation of MDA adducts) [1] | other results |
| --- | --- | --- | --- |
| CC(C)(O)c1c(N)cc(Cl)c2c(C3CC3)noc12 [Compound 16, 2-(6-amino-4-chloro-3-cyclopropylbenzisoxazol-7-yl)propan-2-ol] | a majority of the adducts were bis-oxaminal | quickly react with MDA to form MDA adducts; also recorded: reacts and traps MDA | – |
| Cc1ccc(-c2nc3cc(N)c(C(C)(C)O)c(Cl)c3o2)cc1 [Compound 12, 2-(5-amino-7-chloro-2-p-tolylbenzoxazol-6-yl)propan-2-ol] | a majority of the adducts were bis-oxaminal | quickly react with MDA to form MDA adducts; also recorded: reacts and traps MDA | – |
| CC(C)(O)c1c(N)cnc2ccc(Cl)cc12 [Compound 2, 2-(3-amino-6-chloroquinolin-4-yl)propan-2-ol] | – | quickly react with MDA to form MDA adducts; also recorded: reacts and traps MDA | – |
| CC(C)(O)c1c(N)cnc2ccc(Cl)c(F)c12 [Compound 1, 2-(3-amino-6-chloro-5-fluoroquinolin-4-yl)propan-2-ol] | a majority of the adducts were bis-oxaminal | quickly react with MDA to form MDA adducts; also recorded: reacts and traps MDA | – |
| CC(C)(O)c1c(N)cc2onc(C3CC3)c2c1Cl [Compound 14, 2-(6-amino-4-chloro-3-cyclopropylbenzisoxazol-5-yl)propan-2-ol] | a majority of the adducts were bis-oxaminal | quickly react with MDA to form MDA adducts; also recorded: reacts and traps MDA | – |
| CC(C)(O)c1nc2ccc(Cl)cc2cc1N [Compound 9] | in both the imine form and the oxaminal form | reacted with MDA and formed MDA adducts; also recorded: reacts and traps MDA | other chemokines, such as eotaxin, IL-12, IP-10, LIF, MCP-1, MIG, MIP, and RANTES [2]: decreased; anti-inflammatory cytokines, such as IL-10 ([2]; FIG. 4): elevated; proinflammatory cytokines, such as IL-5 and IL-1β, IL-17, and TNF ([2]; FIGS. 3 and 4): broad downregulation; also recorded: reduction; reaction with and trapping of MDA ([3]; FIG. 1): rapidly reacts with and traps; also recorded: decrease aldehyde (e.g., MDA and HNE) concentration in a time-dependent manner; trapping of MDA [3, 9]: rapidly traps MDA and HNE; aldehyde-mediated cell death in neurons (LDH assay) [4]: prevented aldehyde-mediated cell death in neurons; efficacy against contact dermatitis [5]: effective; radiation induced fibrosis [6]: diminishes radiation induced fibrosis; efficacy against allergic dermatitis [7]: effective; reaction with and trapping of HNE ([8]; FIG. 1): rapidly reacts with and traps; also recorded: decrease aldehyde (e.g., MDA and HNE) concentration in a time-dependent manner; trapping of HNE [8, 9]: rapidly traps MDA and HNE |
